Drawing on patent publication US20240092799A1, “MNK INHIBITORS” (Hepagene Therapeutics (HK) Limited, priority 2020, published 2024), this text covers IC50 for 26 molecules.

One test relates to TMD-8 cell p-IF4E. As to the kind of experiment: p-eIF4E Signaling Cellular Assay (CisBio HTRF) in TMD-8 cells. The test is classed as cell-based. The note with it: Homo sapiens, TMD8, 40 min, 40 min treatment. As for the experimental part: p-eIF4E Signaling Cellular Assay. Phosphorylated eIF4E is assayed using the CisBio p-Eif4E HTRF assay kit. Reagents and equipment used in the assay are listed below, followed by the protocol.
Cell medium: RPMI 1640+10% FBS+1*PS, TMD-8 were cultured as recommended and assayed in exponential growth phase. • a) Plate 30 μL of cells in 384 white assay plate in appropriate medium and proper cell density (20 k/well) based on Optimization at 37° C. under 5% CO2 atmosphere • b) Dispense 90 nL of compounds diluted in DMSO and treat for 40 min at 37° C. under 5% CO2 atmosphere • c) Remove cell supernatant by flicking the plate • d) Add 16 μL of supplemented lysis buffer (1×) for 30 minutes at RT under shaking • e) Add 4 μL of premixed antibody solutions prepared in the detection buffer. Cover the plate with a plate sealer. Incubate 0/N at RT • f) Read the fluorescence emission at 665 nm and 620 nm on Envision • g) Data analysis • (1) Ratio […] signal is calculated for each well • (2) % Inhibition is calculated as follow:
% inhibition=100−(Signalcmpd-SignalAve_PC)/(SignalAve_VC-SignalAve_PC)×100. • (3) Calculate IC50 and Plot effect-dose curve of cmpds:
Calculate IC50 by fitting % Inhibition values and log of compound concentrations to nonlinear regression (dose response−variable slope) with Graphpad 8.0.
Y=Bottom+(Top−Bottom)/(1+10^((Log IC50−X)*Hill Slope)) • X: log of Inhibitor concentration; Y: % Inhibition.

Another test has as its target MNK2 (Homo sapiens (Human), UniProt Q9HBH9). Description: MNK Biochemical Enzymatic Assay (ADP-Glo), MNK2 binding assay. In a few lines:
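Human MNK1 or MNK2 was preincubated with a 10-point, 1:3 serial dilution of compound for 15 min at 25 °C. Substrate was then added and the reaction ran 60 min at 25 °C. ADP formed was read by ADP-Glo luminescence, and IC50 came from non-linear regression.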
Background: ADP-Glo turns the ADP formed in a reaction into a luminescent signal.

Chain of MNK2 (Q9HBH9 whole entry): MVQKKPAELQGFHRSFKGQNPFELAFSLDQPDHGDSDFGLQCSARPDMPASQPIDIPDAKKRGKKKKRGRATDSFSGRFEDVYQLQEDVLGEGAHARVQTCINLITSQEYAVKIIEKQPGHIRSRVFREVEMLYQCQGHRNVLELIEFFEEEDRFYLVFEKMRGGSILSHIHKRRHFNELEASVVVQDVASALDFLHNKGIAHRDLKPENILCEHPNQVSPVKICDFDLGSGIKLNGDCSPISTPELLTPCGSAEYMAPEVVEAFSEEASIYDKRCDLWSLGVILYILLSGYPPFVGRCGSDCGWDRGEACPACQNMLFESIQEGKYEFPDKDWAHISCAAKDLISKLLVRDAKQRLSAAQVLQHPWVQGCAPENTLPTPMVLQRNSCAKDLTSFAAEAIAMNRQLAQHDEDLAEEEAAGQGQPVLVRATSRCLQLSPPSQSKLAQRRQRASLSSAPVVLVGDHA

Turning to `Cc1cc(Nc2cc(N[C@@H]3COC[C@H]3O)ncn2)[n+]([O-])c2c1C(=O)NC21CCCCC1` (relative stereo) [Compound XXIX-AE, 2′-((6-((trans-4-hydroxytetrahydrofuran-3-yl)amino)pyrimidin-4-yl)amino)-4′-methyl-5′-oxo-5′,6′-dihydrospiro[cyclohexane-1,7′-pyrrolo[3,4-b]pyridine] 1′-oxide], the values for the IC50 in the test on TMD-8 cell p-IF4E and at MNK2 were 10 to 100 nM and 0.1 to 10 nM, respectively. Taken in the same sequence, the figures for `COc1c(N)ncnc1Nc1cc2c(s1)C(=O)NC21CCCCC1` [Compound X-C, 2′-((6-amino-5-methoxypyrimidin-4-yl)amino)spiro[cyclohexane-1,4′-thieno[2,3-c]pyrrol]-6′(5′H)-one] were 10 to 100 nM and 0.1 to 10 nM. Taken in the same sequence, the figures for `O=C1NC2(CCCCC2)c2cc(Nc3ncnc4[nH]cnc34)sc21` [Compound XVII, 2′-((9H-Purin-6-yl)amino)spiro[cyclohexane-1,4′-thieno[2,3-c]pyrrol]-6′(5′H)-one] were 100 to 1000 nM and 0.1 to 10 nM. On to `O=C1NC2(CCCCC2)c2cc(Nc3ncnc4[nH]ccc34)sc21` [Compound XVII-A, 2′-((7H-pyrrolo[2,3-d]pyrimidin-4-yl)amino)spiro[cyclohexane-1,4′-thieno[2,3-c]pyrrol]-6′(5′H)-one], for which the 50% inhibitory concentration (IC50) (as a rule, the midpoint of a concentration-inhibition curve) in the test with TMD-8 cell p-IF4E was in the range of 10 to 100 nM; at MNK2 it was 0.1 to 10 nM. With `O=C1NC2(CCCCC2)c2cc(Nc3ncnc4[nH]ncc34)sc21` [Compound XVII-B, 2′-((1H-pyrazolo[3,4-d]pyrimidin-4-yl)amino)spiro[cyclohexane-1,4′-thieno[2,3-c]pyrrol]-6′(5′H)-one], the half-inhibitory concentration (IC50) was 100 to 1000 nM with TMD-8 cell p-IF4E and 0.1 to 10 nM at MNK2. The corresponding values for `Cc1cc2c(Nc3cc4c(s3)C(=O)NC43CCCCC3)ncnc2[nH]1` [Compound XVII-C, 2′-((6-methyl-7H-pyrrolo[2,3-d]pyrimidin-4-yl)amino)spiro[cyclohexane-1,4′-thieno[2,3-c]pyrrol]-6′(5′H)-one] are 10 to 100 nM and 0.1 to 10 nM. The corresponding values for `O=C1NC2(CCCCC2)c2cc(Nc3cc(NC(=O)C4CCCC4)ncn3)sc21` [Compound XX-D, N-(6-((6′-Oxo-5′,6′-dihydrospiro[cyclohexane-1,4′-thieno[2,3-c]pyrrol]-2′-yl)amino)pyrimidin-4-yl)cyclopentanecarboxamide] are 100 to 1000 nM and 0.1 to 10 nM. The corresponding values for `O=C1NC2(CCCCC2)c2c1sc(Nc1cc(N[C@H]3CCOC3)ncn1)c2Cl` [Compound XXI-A, (S)-3′-chloro-2′-((6-((tetrahydrofuran-3-yl)amino)pyrimidin-4-yl)amino)spiro[cyclohexane-1,4′-thieno[2,3-c]pyrrol]-6′(5′H)-one] are 10 to 100 nM and 0.1 to 10 nM. In the case of `O=C1NC2(CCCCC2)c2cc(Nc3cc(Nc4ccccn4)ncn3)sc21` [Compound XXIII-C, 2′-((6-(Pyridin-2-ylamino)pyrimidin-4-yl)amino)spiro[cyclohexane-1,4′-thieno[2,3-c]pyrrol]-6′(5′H)-one], the half-inhibitory concentration (IC50) in the test on TMD-8 cell p-IF4E is 10 to 100 nM; on MNK2, 0.1 to 10 nM.

Take `O=C1NC2(CCCCC2)c2cc(Nc3cc(NCCO)ncn3)sc21` [Compound XXIII-J, 2′-((6-((2-Hydroxyethyl)amino)pyrimidin-4-yl)amino)spiro[cyclohexane-1,4′-thieno[2,3-c]pyrrol]-6′(5′H)-one]: the values for the IC50 in the test on TMD-8 cell p-IF4E and on MNK2 were 100 to 1000 nM and 0.1 to 10 nM, respectively. As to `O=C1NC2(CCCCC2)c2cc(Nc3cc(NC4CCCC4)ncn3)sc21` [Compound XXIII-N, 2′-((6-(Cyclopentylamino)pyrimidin-4-yl)amino)spiro[cyclohexane-1,4′-thieno[2,3-c]pyrrol]-6′(5′H)-one], the half-inhibitory concentration (IC50) with TMD-8 cell p-IF4E and at MNK2 was 10 to 100 nM throughout. In the case of `Cn1ccc(Nc2cc(Nc3cc4c(s3)C(=O)NC43CCCCC3)ncn2)n1` [Compound XXIII-P, 2′-((6-((1-methyl-1H-pyrazol-3-yl)amino)pyrimidin-4-yl)amino)spiro[cyclohexane-1,4′-thieno[2,3-c]pyrrol]-6′(5′H)-one], the IC50 is 10 to 100 nM in the test with TMD-8 cell p-IF4E and 0.1 to 10 nM on MNK2. The corresponding values for `CN1CCN(c2ccc(Nc3cc(Nc4cc5c(s4)C(=O)NC54CCCCC4)ncn3)nc2)CC1` [Compound XXIII-T, 2′-((6-((5-(4-methylpiperazin-1-yl)pyridin-2-yl)amino)pyrimidin-4-yl)amino)spiro[cyclohexane-1,4′-thieno[2,3-c]pyrrol]-6′(5′H)-one] are 10 to 100 nM and 0.1 to 10 nM.

Consider `O=C1NC2(CCCCC2)c2cc(Nc3cc(Nc4cc[nH]n4)ncn3)sc21` [Compound XXIII-U, 2′-((6-((1H-pyrazol-3-yl)amino)pyrimidin-4-yl)amino)spiro[cyclohexane-1,4′-thieno[2,3-c]pyrrol]-6′(5′H)-one], for which the IC50 was in the range of 10 to 100 nM in the test with TMD-8 cell p-IF4E and 0.1 to 10 nM on MNK2.

For `O=C1NC2(CCCCC2)c2cc(Nc3cc(NC4CCOC4)ncn3)sc21` (centres unmarked) [Compound XXIII-Y, 2′-((6-((tetrahydrofuran-3-yl)amino)pyrimidin-4-yl)amino)spiro[cyclohexane-1,4′-thieno[2,3-c]pyrrol]-6′(5′H)-one], the IC50 in the test with TMD-8 cell p-IF4E lay within 10 to 100 nM; on MNK2, 0.1 to 10 nM. The corresponding values for `O=C1NC2(CCCCC2)c2cc(Nc3cc(N[C@H]4CCCOC4)ncn3)sc21` [Compound XXIV-A, (S)-2′-((6-((tetrahydro-2H-pyran-3-yl)amino)pyrimidin-4-yl)amino)spiro[cyclohexane-1,4′-thieno[2,3-c]pyrrol]-6′(5′H)-one] are 100 to 1000 nM and 0.1 to 10 nM.

In the case of `O=C1NC2(CCCCC2)c2cc(Nc3ccnc(N[C@H]4CCOC4)c3)sc21` [Compound XXIV-B, (S)-2′-((2-((tetrahydrofuran-3-yl)amino)pyridin-4-yl)amino)spiro[cyclohexane-1,4′-thieno[2,3-c]pyrrol]-6′(5′H)-one], the IC50 in the test on TMD-8 cell p-IF4E lay within 10 to 100 nM; at MNK2, 0.1 to 10 nM.

Regarding `O=C1NC2(CCCCC2)c2cc(Nc3cc(N[C@H]4CCOC4)ncn3)sc21` [Compound XXIV-C, (S)-2′-((6-((tetrahydrofuran-3-yl)amino)pyrimidin-4-yl)amino)spiro[cyclohexane-1,4′-thieno[2,3-c]pyrrol]-6′(5′H)-one], the results for the IC50 in the test on TMD-8 cell p-IF4E and at MNK2 were 10 to 100 nM and 0.1 to 10 nM, respectively. Taken in the same sequence, the figures for `CNC(=O)Nc1cc(Nc2cc3c(s2)C(=O)NC32CCCCC2)ncn1` [Compound XXIV-G, 1-methyl-3-(6-((6′-oxo-5′,6′-dihydrospiro[cyclohexane-1,4′-thieno[2,3-c]pyrrol]-2′-yl)amino)pyrimidin-4-yl)urea] were 100 to 1000 nM and 0.1 to 10 nM. As for `O=C1NC2(CCCCC2)c2cc(Nc3cc(NCC4CCCC4)ncn3)sc21` [Compound XXIV-H, 2′-((6-((cyclopentylmethyl)amino)pyrimidin-4-yl)amino)spiro[cyclohexane-1,4′-thieno[2,3-c]pyrrol]-6′(5′H)-one], the concentration for half-maximal inhibition (IC50) in the test with TMD-8 cell p-IF4E and at MNK2 was 10 to 100 nM throughout. Turning to `O=C1NC2(CCCCC2)c2cc(Nc3cc(NC(=O)C4CCOC4)ncn3)sc21` (centres unmarked) [Compound XXIV-I, N-(6-((6′-oxo-5′,6′-dihydrospiro[cyclohexane-1,4′-thieno[2,3-c]pyrrol]-2′-yl)amino)pyrimidin-4-yl)tetrahydrofuran-3-carboxamide], the half-maximal inhibitory concentration (IC50) fell in the range of 100 to 1000 nM in the test with TMD-8 cell p-IF4E and 0.1 to 10 nM on MNK2. For the molecule `COc1c(Nc2nc3c(s2)C(=O)NC32CCCCC2)ncnc1N[C@H]1CCOC1` [Compound XXVIII-F, (S)-2′-((5-methoxy-6-((tetrahydrofuran-3-yl)amino)pyrimidin-4-yl)amino)spiro[cyclohexane-1,4′-pyrrolo[3,4-d]thiazol]-6′(5′H)-one], the IC50 at MNK2 is > 1000 nM.

Molecule `CC(=O)N(C)c1cccc(Nc2cc(Nc3nc4c(s3)C(=O)NC43CCCCC3)ncn2)c1` [Compound XXVIII-I, N-methyl-N-(3-((6-((6′-oxo-5′,6′-dihydrospiro[cyclohexane-1,4′-pyrrolo[3,4-d]thiazol]-2′-yl)amino)pyrimidin-4-yl)amino)phenyl)acetamide] came in with an IC50 on MNK2 of 10 to 100 nM. On the same count and under the same terms, for `O=C1NC2(CCCCC2)c2nc(Nc3ccnc(Nc4ccccn4)c3)sc21` [Compound XXVIII-J, 2′-((2-(pyridin-2-ylamino)pyridin-4-yl)amino)spiro[cyclohexane-1,4′-pyrrolo[3,4-d]thiazol]-6′(5′H)-one] the value was 10 to 100 nM; for `O=C1NC2(CCCCC2)c2nc(Nc3cc(N[C@H]4C[C@H](O)C4)ncn3)sc21` [Compound XXVIII-N, Trans-2′-((6-(((1r,3r)-3-hydroxycyclobutyl)amino)pyrimidin-4-yl)amino)spiro[cyclohexane-1,4′-pyrrolo[3,4-d]thiazol]-6′(5′H)-one], 10 to 100 nM; for `O=C1NC2(CCCCC2)c2cc(Nc3ncnc4cccnc34)sc21` [Compound XXX, 2′-(pyrido[3,2-d]pyrimidin-4-ylamino)spiro[cyclohexane-1,4′-thieno[2,3-c]pyrrol]-6′(5′H)-one], 10 to 100 nM.
